Where two headings read alike, the source gives them in different places.
What was measured:
[1] = tested on: green peach aphid (Myzus persicae); experiment: Myzus test; type: in vivo; conditions: read-out: efficacy (aphids killed)
Method in brief: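 Active ingredient formulated in acetone/dimethylformamide with alkylaryl polyglycol ether emulsifier, diluted in emulsifier-containing water. Sprayed onto Chinese cabbage leaf discs carrying all aphid stages; % efficacy scored after set time (100% = all aphids dead).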

[2] = Determination of log P values by HPLC on reversed-phase column (formic acid method); type: physicochemical; conditions: reversed-phase C 18, acidic range (pH 3.4), formic acid eluents, 55° C., read-out: logP (HCOOH)
Method in brief: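 Reversed-phase C18 HPLC per EEC Directive 79/831 Annex V.A8, pH 3.4, acetonitrile/water with formic acid, gradient 10% to 95% acetonitrile in 4.25 min. log P obtained from retention times by linear interpolation between successive unbranched alkan-2-ones (C3–C16) of known log P.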

[3] = application rate 500 g/ha, spray on Chinese cabbage leaf slices
[4] = reversed-phase HPLC column (C 18), pH 3.4, HPLC

Which results are given for Cc1nc(-c2cccnc2)sc1C(=O)NCc1cccnc1 [Compound 135]?
pest or weed control at 500 g/ha [1, 3]: ≥ 70%; chromatographic logP [2, 4]: 0.46

With Cc1nc(-c2cccnc2)sc1C(=O)N[C@@H]1C[C@@H]1F [Compound 83] as the molecule, how does the pest or weed control at 500 g/ha [1, 3] read?
Its pest or weed control at 500 g/ha is at least 70%.

What about the chromatographic logP [2, 4] of the same molecule?
Its chromatographic logP is 1.16.

Which pest or weed control at 500 g/ha [1, 3] does the source give for CSCCN(C)C(=O)c1cnc(-c2cccnc2)s1 [Compound 148] here?
Its pest or weed control at 500 g/ha is at least 70%.

And the chromatographic logP [2, 4]?
The chromatographic logP was 1.38.

With Cc1nc(-c2cccnc2)sc1C(=O)NNc1ncccn1 [Compound 128] as the molecule, how does the pest or weed control at 500 g/ha [1, 3] read?
Its pest or weed control at 500 g/ha is at least 70%.

And the chromatographic logP [2, 4]?
The chromatographic logP was 0.75.

Which pest or weed control at 500 g/ha ([1]; in Brassica rapa) does the source give for CN(C)C(=O)c1nnc(-c2cccnc2)s1 [Preparation Example 8, N,N-dimethyl-5-pyridin-3-yl[1,3,4]thiadiazole-2-carboxamide] here?
Its pest or weed control at 500 g/ha is at least 70%.

What about the chromatographic logP ([2]; HPLC) of the same molecule?
The chromatographic logP was 0.95.

What does the source list for Cc1nc(-c2cccnc2)sc1C(=O)NC(C)(C)C#N [Compound 52]?
pest or weed control at 500 g/ha [1, 3]: ≥ 70%; chromatographic logP [2, 4]: 1.48

Which pest or weed control at 500 g/ha [1, 3] does the source give for Cc1nc(-c2cccnc2)sc1C(=O)NC(C#N)C(C)C (centres unmarked) [Compound 63] here?
The pest or weed control at 500 g/ha was at least 70%.

And the chromatographic logP [2, 4]?
The chromatographic logP was 1.85.

For Cc1nc(-c2cccnc2)sc1C(=O)N(C)CC1CC1 [Compound 170], which pest or weed control at 500 g/ha [1, 3] is on record?
The pest or weed control at 500 g/ha was at least 70%.

What about the chromatographic logP [2, 4] of the same molecule?
The chromatographic logP was 1.68.

What does the source list for Cc1nc(-c2cccnc2)sc1C(=O)NCC1CCCCO1 (centres unmarked) [Compound 104]?
pest or weed control at 500 g/ha [1, 3]: ≥ 70%; chromatographic logP [2, 4]: 1.64

For Cc1nc(-c2cccnc2)sc1C(=O)NCc1ccncn1 [Compound 126], which pest or weed control at 500 g/ha [1, 3] is on record?
The pest or weed control at 500 g/ha was at least 70%.

And the chromatographic logP [2, 4]?
The chromatographic logP was 0.9.

What does the source list for Cc1nc(-c2cccnc2)sc1C(=O)N(C)C(C)c1ccccn1 (centres unmarked) [Compound 111]?
pest or weed control at 500 g/ha [1, 3]: ≥ 70%; chromatographic logP [2, 4]: 1.45

Which pest or weed control at 500 g/ha [1, 3] does the source give for O=C(NCc1ccncn1)c1cnc(-c2cccnc2)s1 [Compound 81] here?
Its pest or weed control at 500 g/ha is at least 70%.

What about the chromatographic logP [2, 4] of the same molecule?
Its chromatographic logP is 0.73.

What does the source list for Cc1nc(-c2cccnc2)sc1C(=O)NCC(C)(F)F [Compound 36]?
pest or weed control at 500 g/ha [1, 3]: ≥ 70%; chromatographic logP [2, 4]: 1.59

What does the source list for O=C(NCc1ccccn1)c1cnc(-c2cccnc2)s1 [Compound 106]?
pest or weed control at 500 g/ha [1, 3]: ≥ 70%; chromatographic logP [2, 4]: 0.61

For C=CN(Cc1ncccn1)C(=O)c1cc(-c2cncc(F)c2)nn1C [Compound 13], which pest or weed control at 500 g/ha [1, 3] is on record?
Its pest or weed control at 500 g/ha is at least 70%.

And the chromatographic logP [2, 4]?
Its chromatographic logP is 1.75.

What does the source list for COCN(CCF)C(=O)c1sc(-c2cccnc2)nc1C [Compound 113]?
pest or weed control at 500 g/ha [1, 3]: ≥ 70%; chromatographic logP [2, 4]: 1.46

Which results are given for Cc1nc(-c2cncc(Br)c2)sc1C(=O)NCC(F)(F)F [Compound 16]?
pest or weed control at 500 g/ha [1, 3]: ≥ 70%; chromatographic logP [2, 4]: 2.61

What does the source list for CN(C)C(=O)c1cnc(-c2cccnc2)s1 [Compound 46]?
pest or weed control at 500 g/ha [1, 3]: ≥ 70%; chromatographic logP [2, 4]: 0.91

For CC(=O)CNC(=O)c1sc(-c2cccnc2)nc1C [Compound 175], which pest or weed control at 500 g/ha [1, 3] is on record?
The pest or weed control at 500 g/ha was at least 70%.

And the chromatographic logP [2, 4]?
The chromatographic logP was 1.02.
